Measured values as given in ChEMBL document CHEMBL4196246, “Preussins with Inhibition of IL-6 Expression from Aspergillus flocculosus 16D-1, a Fungus Isolated from the Marine Sponge Phakellia fusca” (J Nat Prod, 2018).

Legend:
[1] = test system: A549; assay: Cytotoxicity against human A549 cells after 72 hrs by CCK8 assay; type: functional, cell-based; settings: A549, 72 h
[2] = test system: Trichophyton rubrum; assay: Antifungal activity against Trichophyton rubrum ATCC 4438 measured after 4 to 7 days by broth macrodilution method; type: functional
[3] = test system: Candida albicans; assay: Antifungal activity against Monilia albicans ATCC 10231 measured after 24 hrs by broth macrodilution method; type: functional; settings: ATCC 10231, 24 h
[4] = test system: Trichophyton mentagrophytes; assay: Antifungal activity against Trichophyton mentagrophytes ATCC 4439 by broth macrodilution method; type: functional
[5] = test system: HepG2; assay: Cytotoxicity against human HepG2 cells after 72 hrs by CCK8 assay; type: functional, cell-based; settings: HepG2, 72 h
[6] = test system: THP-1; assay: Cytotoxicity against human THP1 cells after 72 hrs by CCK8 assay; type: functional, cell-based; settings: THP-1, 72 h
[7] = test system: THP-1; assay: Immunosuppressive activity in PMA-differentiated human THP1 cells assessed as inhibition of LPS-stimulated IL-6 production by flow cytometry; type: functional, cell-based

For CN1[C@H](CCCCCC(=O)O)C[C@H](O)[C@@H]1Cc1ccccc1, the IC50 [1] was > 20 µM, the MIC [2] was > 50 µg/mL and the MIC [3] was > 50 µg/mL. The MIC [4] was > 50 µg/mL, the IC50 [5] was > 20 µM and the IC50 [6] was > 20 µM. It also gave an IC50 [7] of 8.2 µM.

With CN1[C@H](CCCCCCC(=O)O)C[C@H](O)[C@@H]1Cc1ccccc1 the IC50 [1] was > 20 µM, the MIC [2] was > 50 µg/mL and the MIC [3] was > 50 µg/mL. For the same molecule, the MIC [4] was > 50 µg/mL, the IC50 [5] was > 20 µM and the IC50 [6] was > 20 µM. The IC50 [7] was 9.9 µM.

CC(C)=CCC/C(C)=C/Cc1cc(-c2coc3cc(O)ccc3c2=O)ccc1O was tested, and the IC50 [7] was 0.67 µM.

CN1[C@H](CCC(=O)O)C[C@H](O)[C@@H]1Cc1ccccc1 was tested, and the IC50 [1] was > 20 µM, the MIC [2] was > 50 µg/mL and the MIC [3] was > 50 µg/mL. The MIC [4] was > 50 µg/mL, the IC50 [5] was > 20 µM and the IC50 [6] was > 20 µM. It also gave an IC50 [7] of 21 µM.

CN1[C@H](CCCCC(=O)O)C[C@H](O)[C@@H]1Cc1ccccc1 was tested, and the IC50 [1] was > 20 µM, the MIC [2] was > 50 µg/mL and the MIC [3] was > 50 µg/mL. For the same molecule, the MIC [4] was > 50 µg/mL, the IC50 [5] was > 20 µM and the IC50 [6] was > 20 µM. The IC50 [7] was 22 µM.

For CC[C@@H](O)CCCCCC[C@@H]1C[C@H](O)[C@H](Cc2ccccc2)N1C, the IC50 [1] was > 20 µM, the MIC [2] was > 50 µg/mL and the MIC [3] was > 50 µg/mL. For the same molecule, the MIC [4] was > 50 µg/mL, the IC50 [5] was > 20 µM and the IC50 [6] was > 20 µM. The IC50 [7] was 0.19 µM.

For C[C@@H](O)CCCCCCC[C@@H]1C[C@H](O)[C@H](Cc2ccccc2)N1C, the IC50 [1] was > 20 µM, the MIC [2] was > 50 µg/mL and the MIC [3] was > 50 µg/mL. The MIC [4] was > 50 µg/mL, the IC50 [5] was > 20 µM and the IC50 [6] was > 20 µM. The IC50 [7] was 14 µM.

CN1[C@H](CCCCCCCCC(=O)O)C[C@H](O)[C@@H]1Cc1ccccc1 was tested, and the IC50 [1] was > 20 µM, the MIC [2] was > 50 µg/mL and the MIC [3] was > 50 µg/mL. The MIC [4] was > 50 µg/mL, the IC50 [5] was > 20 µM and the IC50 [6] was > 20 µM. It also gave an IC50 [7] of 0.11 µM.

With CCCC(O)CCCCC[C@@H]1C[C@H](O)[C@H](Cc2ccccc2)N1C (mixture of isomers) the IC50 [1] was > 20 µM, the MIC [2] was > 50 µg/mL and the MIC [3] was > 50 µg/mL. The MIC [4] was > 50 µg/mL, the IC50 [5] was > 20 µM and the IC50 [6] was > 20 µM. It also gave an IC50 [7] of 16 µM.

In the case of CC(O)CCCCC[C@@H]1C[C@H](O)[C@H](Cc2ccccc2)N1C (mixture of isomers), the IC50 [1] is reported as > 20 µM, the MIC [2] is reported as > 50 µg/mL and the MIC [3] is reported as > 50 µg/mL. For the same molecule, the MIC [4] was > 50 µg/mL, the IC50 [5] was > 20 µM and the IC50 [6] was > 20 µM. For the same molecule, the IC50 [7] was 2.3 µM.
